Like-named read-outs stand apart in the source and are kept apart here.
Assays:
[1] = test system: immunoglobulins (IgG, IgM, total IgG); assay: Plasma immunoglobulins (Ig); assay type: in vivo, female Beagles (dogs); settings: dog
Description: (§1) The following parameters were assessed in all the animals or in the peripheral blood lymphocytes: (1) delayed-type hypersensitivity (DTH) against PHA (nonspecific immunity) and vaccine (specific immunity), (2) lymphocyte proliferation, (3) lymphocyte populations and (4) immunoglobulins (Ig).

in vivo [2] = assay: in vivo; design: species or system female short hair Tabby cats
Description: (§2) Mature female short hair Tabby cats (7 to 8 months of age; 1.5 to 2.0 kg body weight) were used for Examples 4-6and were fed a basal diet (The lams Co., Lewisburg, Ohio.) which met or exceeded the requirement for all essential nutrients. Animals were group-housed indoors in light- and temperature-controlled rooms.
In this Example, the cats (n=6/treatment) were dosed daily at 0800 hr for 6 consecutive days with 0, 1, 2, 5 or 10 mg β-carotene. Blood was sampled once daily on day 0 (immediately prior to the first dose) and subsequently at 12 hr after each dosing (days 1 through 6). This blood sampling time was chosen based on the results obtained in Example 5. Plasma was isolated and analyzed for concentrations of β-carotene.

DTH response to vaccine = assay: Delayed-type hypersensitivity (DTH) against vaccine (specific immunity); assay type: in vivo, female Beagles (dogs); settings: dog, 20 or 50 mg β-carotene daily, 7 weeks
Description: as §1

[3] = assay type: in vivo, female Beagles (dogs); settings: dog, daily supplementation
Description: (§3) Female Beagles (4 to 5 mo old) were supplemented daily with 0, 25, 50 or 100 mg of β-carotene to study the role of dietary β-carotene in enhancing the cell-mediated and humoral immune systems of the dog. The following parameters were assessed in all the animals or in the peripheral blood lymphocytes: (1) delayed-type hypersensitivity (DTH) against PHA (nonspecific immunity) and vaccine (specific immunity), (2) lymphocyte proliferation, (3) lymphocyte populations and (4) immunoglobulins (Ig).

[4] = cited from earlier work
DTH response to PHA = assay: Delayed-type hypersensitivity (DTH) against PHA (nonspecific immunity); assay type: in vivo, female Beagles (dogs); settings: dog, 50 mg β-carotene daily, 7 weeks
Description: as §3

in vivo [5] = settings: dog, po
[6] = dog, in vivo
IL-2 = IL-2 production; assay type: in vivo, female Beagles (dogs); settings: dog, β-carotene feeding
[7] = pigs and rodents; cited from earlier work
CD8 cells = assay: Lymphocyte populations (CD8 cells); assay type: in vivo, female Beagles (dogs); settings: dog, 20 mg daily, weeks 2 and 4
Description: as §1

[8] = design: species or system female Beagle dogs; settings: dog, in vivo
Description: (§4) Female Beagle dogs (18 to 19 months of age; 7 to 9 kg body weight) were used in Examples 1-3 and were fed a basal diet (The lams Co., Lewisburg, Ohio.) which met or exceeded the requirement for all essential nutrients. Animals were housed indoors in light--(14 hr light; 10 hr dark) and temperature-controlled rooms.
(§5) All procedures were conducted under dim light. Duplicate aliquots of plasma, each leukocyte homogenate, and each leukocyte subcellular fraction were extracted with a 1:1 mixture of diethyl ether and petroleum ether in the presence of BHT. The ether phase was removed and dried under a stream of nitrogen.
In this Example, the dogs (n=6/treatment) were fed daily at 0800 hr for 7 consecutive days with 0, 12.5, 25, 50 or 100 mg β-carotene. The β-carotene was top-dressed on the food and fed in the morning meal. Blood was sampled once daily on day 0 (immediately prior to the first dose) and subsequently at 6 hr after each dosing (days 1 through 7). […] Plasma was isolated and analyzed for concentrations of β-carotene.

lymphocyte blastogenesis = assay: Mitogen-induced lymphocyte blastogenesis (lymphocyte proliferation); assay type: in vivo, female Beagles (dogs); settings: dog, β-carotene feeding
Description: as §3

blood neutrophils = test system: blood neutrophils; design: species or system female Beagle dogs; settings: dog, in vivo
Description: as §4, §5
(§6) This example was designed to study the uptake of β-carotene in dogs by blood lymphocytes. The dogs (n=8/treatment) were fed 0, 50 or 100 mg of β-carotene daily for 30 days. Blood was sampled from all dogs via the jugular vein on days 10, 20 and 30. Blood lymphocytes and neutrophils were separated by density gradient centrifugation. Cell numbers were enumerated. Lymphocytes and neutrophils were resuspended in PBS containing 3% sodium ascorbate as an antioxidant. An aliquot of the cell suspension was sonicated for 30 seconds to disrupt the cells. The leukocyte homogenates were extracted for HPLC analysis of β-carotene.

blood lymphocytes = test system: blood lymphocytes; design: species or system female Beagle dogs; settings: dog, in vivo
Description: as §4, §5, §6

in vivo [9] = assay: in vivo; design: species or system female short hair Tabby cats; settings: po
Description: as §2
To study the uptake of oral β-carotene in cats given a single dose of β-carotene orally, cats (n=6/treatment) were given once perorally 0, 10, 20 or 50 mg of β-carotene (10% cold water dissolvable; BASF Corp., Ludwigshafen, Germany). The appropriate dose of β-carotene was dissolved in 0.6 ml of water and fed orally by using a feeding syringe. […] These cats were fed once with 50 mg β-carotene and blood sampled at 0 (immediately prior to β-carotene feeding), 3, 6, 10, 16, 24, 30 and 36 hr.
The results from this example are illustrated in FIG. 14 and show peak concentrations of β-carotene generally occurring between 10 and 16 hr post-dosing. Subsequently, blood was sampled from the remaining cats at 0, 12, 24, 30, 36, 42, 48 and 72 hr after dosing. Plasma was similarly separated and analyzed.

[10] = test system: subcellular fractions of blood neutrophils; design: species or system female Beagle dogs; settings: dog, in vivo
Description: as §5, §6
(§7) On day 30, a larger aliquot of blood was taken and leukocyte suspensions prepared as described above for subsequent subcellular fractionation. Cells were disrupted by sonication for 20 seconds in 5 volumes of 0.25 M sucrose. Sodium ascorbate was added as the antioxidant. The homogenate was centrifuged (600×g for 10 min at 4° C.) and the nuclear pellet separated from the supernatant. The postnuclear supernatant was centrifuged (17,300×g for 20 min at 4° C.) to separate the mitochondrial fraction. The postmitochondrial supernatant was centrifuged (102,000×g for 60 min at 4° C.) to separate the microsomal from the cytosolic fraction. Each subcellular fraction was analyzed for β-carotene content by HPLC.

[11] = test system: subcellular fractions of blood lymphocytes; design: species or system female Beagle dogs; settings: dog, in vivo
Description: as §5, §6, §7

[12] = Blood uptake of β-carotene in dogs after a single oral dose (plasma, HPLC); settings: dog
[13] = test system: peripheral blood lymphocytes; design: species or system female short hair Tabby cats; settings: in vivo
Description: as §2
(§8) This example studied the uptake of β-carotene by blood lymphocytes in cats. The cats (n=8/treatment) were fed 0, 5 or 10 mg of β-carotene daily for 14 days. Blood was sampled on days 7 and 14 with the aid of a blood collection vacutainer set (Becton Dickenson, Franklin Lakes, N.J.) in sedated animals (10 mg ketamine and 0.1 mg of acepromazine/kg body weight). Blood lymphocytes and neutrophils were separated by density gradient centrifugation. Cell numbers were enumerated. Lymphocytes were resuspended in PBS containing 3% sodium ascorbate as an antioxidant. An aliquot of the cell suspension was sonicated for 30 seconds to disrupt the cells. The lymphocyte homogenate was extracted for the HPLC analysis of β-carotene. Adequate numbers of neutrophils could not be obtained; therefore, no data are available in quantitating the uptake of β-carotene by circulating neutrophils.

CD4+ cells = assay: Lymphocyte populations (CD4+ cells); assay type: in vivo, female Beagles (dogs); settings: dog, 20 or 50 mg daily, wk 8
Description: as §1

[14] = test system: subcellular lymphocyte fractions; design: species or system female short hair Tabby cats; settings: in vivo
Description: as §2, §8
A larger aliquot was used to prepare subcellular lymphocyte fractions. Lymphocytes were disrupted by sonication for 20 seconds in 5 volumes of 0.25 M sucrose. Sodium ascorbate was added as the antioxidant. The homogenate was centrifuged (600×g for 10 min at 4° C.) and the crude nuclear pellet separated from the supernatant. The postnuclear supernatant obtained earlier was centrifuged (7,300×g for 20 min at 4° C.) to separate the mitochondrial fraction. The postmitochondrial supernatant was centrifuged (102,000×g for 60 min at 4° C.) to separate the microsomal from the cytosolic fraction. Each subcellular fraction was analyzed for β-carotene content by HPLC.

With CC1=C(/C=C/C(C)=C/C=C/C(C)=C/C=C/C=C(C)/C=C/C=C(C)/C=C/C2=C(C)CCCC2(C)C)C(C)(C)CCC1 [β-carotene] the “dose dependence of Ig increases” value ([1]; 0 to 20 mg) was “dose dependent”, the “antibody response for both Ig at 20 mg” value ([1]; 20 mg daily) was “greatest antibody response” and the “Ig response at the highest level (50 mg)” value ([1]; 50 mg daily) was “did not produce a further increase”. For the same compound, the “concentrations of IgG, IgM and total IgG” value ([1]; as early as 1 wk after dietary supplementation) was “increased significantly”, the “increase in daily changes in plasma β-carotene, 10 mg vs other doses” value (in vivo [2]) was “steepest increase” and the “plasma β-carotene after the last dose relative to after one dose” value (in vivo [2]) was 1.5-2 fold. The concentration at 12 h (in vivo [2]; cat, po) was 192 ± 58 ng/mL, the “DTH response to vaccine” value (DTH response to vaccine) was “significantly higher DTH response” and the “effect on plasma retinol” value [3] was “did not influence”. The “effect on plasma α-tocopherol” value [3] was “did not influence”, the “β-carotene in the liver and milk of dogs” value ([4]; earlier studies) was “only trace amounts” and the “β-carotene in the circulating blood and organs of dogs” value ([4]; some studies) was “low to undetectable amounts”. For the same compound, the “DTH response to PHA” value (DTH response to PHA) was “greatest response”, the Tmax (in vivo [5]) was 3 to 6 h and the half-life (in vivo [5]; half-life of plasma β-carotene) was about 180 min. For the same compound, the “plasma β-carotene of dogs lower than that observed in cats” value [6] was 10-16 fold, the “time of peak blood β-carotene, dogs compared with cats” value [6] was “occurred earlier in dogs than in cats” and the “half-life of plasma β-carotene” value ([6]; po) was about 4 h. For the same compound, the IL-2 production (IL-2) was “did not influence”, the “concentrations of β-carotene” value [7] was “very low concentrations” and the “population of CD8 cells” value (CD8 cells) was “elevated population”. The “increase in daily concentrations of plasma β-carotene, 100 mg vs other doses” value [8] was “steepest increase”, the “plasma β-carotene after the last dose relative to after the first dose” value [8] was 2.5-4 fold and the mitogen-induced lymphocyte blastogenesis (lymphocyte blastogenesis) was “did not influence”. For the same compound, the “neutrophil β-carotene concentrations on day 30” value (blood neutrophils) was “no further increase”, the “treatment difference in β-carotene concentrations in lymphocytes, 50 versus 100 mg” value (blood lymphocytes) was “no significant treatment difference” and the “β-carotene in lymphocytes of dogs lower than that observed in cats” value (blood lymphocytes) was 20-30 fold. The “β-carotene in peripheral blood lymphocytes on day 0” value (blood lymphocytes) was “undetectable”, the “half-life of plasma β-carotene” value (in vivo [9]; cat) was “about 24 hr” and the half-life (in vivo [9]; cat, half-life of plasma β-carotene) was 720 to 1080 min. For the same compound, the Tmax (in vivo [9]; cat, time of peak concentrations of plasma β-carotene) was 12 h, the Tmax (in vivo [9]; cat, time of peak concentrations of β-carotene (post-dosing)) was 10 to 16 h and the “plasma β-carotene concentration, 50 mg vs other doses” value (in vivo [9]) was “highest (P<0.01)”. For the same compound, the “dose effect on β-carotene uptake by neutrophil subcellular fractions” value [10] was “No significant dose effect”, the “β-carotene in nuclei of blood neutrophils” value [10] was “not detected” and the “share of total lymphocyte β-carotene in the cytosol” value [11] was 52-62%. For the same compound, the “share of total lymphocyte β-carotene in the microsomes” value [11] was 16-23%, the “share of total lymphocyte β-carotene in the mitochondria” value [11] was 14-17% and the “share of total lymphocyte β-carotene in the nuclei” value [11] was 6-8%. For the same compound, the “β-carotene in lymphocyte subcellular fractions of dogs compared with cats” value [11] was “substantially lower”, the Tmax [12] was 6 h and the “accumulation of β-carotene in lymphocytes, 10 mg vs 5 mg” value [13] was “did not have higher accumulation”. For the same compound, the “day of maximal uptake of dietary β-carotene by lymphocytes” value [13] was at most 7 days, the “uptake of β-carotene by blood lymphocytes on day 14” value [13] was “no additional increases” and the “β-carotene in peripheral blood lymphocytes on day 0” value [13] was “undetectable”. The “population of CD4+ cells compared to controls” value (CD4+ cells) was “elevated population”, the “accumulation of β-carotene in all fractions, day 14 vs day 7” value [14] was “no additional accumulation” and the “concentrations of β-carotene in lymphocyte fractions, 10 mg vs 5 mg” value [14] was “did not have higher concentrations”. For the same compound, the “influence of dose or length of supplementation on relative β-carotene profiles in lymphocyte fractions” value [14] was “generally were not influenced”, the “relative proportion of β-carotene in the microsomes of lymphocytes” value [14] was 20-35% and the “β-carotene uptake in the nuclei compared to unsupplemented controls” value [14] was “significant”.

For carotene, the “carotene in the blood, liver and milk of dogs” value ([4]; dog, in vivo) is listed as “trace amounts, if any”.
